Laboratory results reported in patent US20250195521A1 (Revolution Medicines, Inc., priority 2020, published 2025).
Like-named read-outs stand apart in the source and are kept apart here.

Key:
[1] = system: K-Ras G12C (NCI-H358 cells); test: Potency assay: pERK in NCI-H358 cells; format: cell-based, human; conditions: read-out: pERK EC50 (H358 KRAS G12C)
How it was run: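 Cells plated the day before were exposed for 4 h at 37° C, 5% CO2 to a 10-point, 3-fold DMSO dilution series (10 mM top stock), in duplicate. Phospho-ERK was read by AlphaLISA SureFire Ultra or by In-Cell Western with DRAQ5 DNA stain, and IC50 came from a 4-parameter sigmoidal fit.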

[2] = system: Capan-1 cells (K-Ras G12V); test: CellTiter-Glo cell viability, Capan-1; format: cell-based, human; conditions: read-out: Capan-1 Cell Viability IC50
How it was run: (§1)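 Viability is read as luminescence after five days of compound exposure, with plates first equilibrated to room temperature for roughly 30 minutes. Each signal is expressed as a percentage of the mean DMSO control, and curves are fitted by four-parameter logistic regression.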

[3] = target: K-Ras G12C(GMP-PNP) binding to BRAF RBD (Homo sapiens (Human), UniProt P01116+P62937, G12C); test: Disruption of BRAF RBD interaction with K-Ras (FRET / MOA assay), K-Ras G12C; format: biochemical; conditions: read-out: KRAS G12C FRET IC50
Chain of K-Ras G12C(GMP-PNP) binding to BRAF RBD (P01116 other isoform, or with tags, fused parts or gaps G12C): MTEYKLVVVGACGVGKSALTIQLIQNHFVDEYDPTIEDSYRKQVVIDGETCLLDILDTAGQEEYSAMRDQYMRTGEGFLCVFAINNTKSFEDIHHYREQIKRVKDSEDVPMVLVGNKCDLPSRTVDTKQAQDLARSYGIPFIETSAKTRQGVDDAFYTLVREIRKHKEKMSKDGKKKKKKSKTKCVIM
Chain of K-Ras G12C(GMP-PNP) binding to BRAF RBD (P62937 whole entry): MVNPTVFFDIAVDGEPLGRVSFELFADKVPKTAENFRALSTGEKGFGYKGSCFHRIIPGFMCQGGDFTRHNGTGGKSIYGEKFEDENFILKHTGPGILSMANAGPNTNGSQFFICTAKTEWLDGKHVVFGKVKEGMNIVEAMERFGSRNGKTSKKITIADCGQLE
How it was run: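 First, test compounds in a 10-point 3-fold series (30 μM final top) were incubated for 3 hours at 25° C with nucleotide-loaded Ras, cyclophilin A and a BRAF RBD construct. Next, Eu anti-His and allophycocyanin anti-GST detection reagents were added for 1.5 hours. Finally, IC50s were derived from loss of TR-FRET signal against DMSO.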

[4] = system: NCI-H358 cells (K-Ras G12C); test: CellTiter-Glo cell viability, NCI-H358; format: cell-based, human; conditions: read-out: H358 Cell Viability IC50
How it was run: as §1

[5] = Homo sapiens, NCI-H358 cells, 4 hours
[6] = Homo sapiens, CAPAN-1, 120 h, K-Ras G12V, 5-day treatment
[7] = Homo sapiens, NCI-H358, 120 h, K-Ras G12C, 5-day treatment

Structure (SMILES) | EC50 ([1]; NCI-H358 cells, 4 hours) [nM] | IC50 ([2]; K-Ras G12V, 5-day treatment) [nM] | IC50 [3] [nM] | IC50 ([4]; K-Ras G12C, 5-day treatment) [nM] | EC50 [1, 5] [nM] | IC50 [2, 6] [nM] | IC50 [4, 7] [nM] | EC50 ([1]; Homo sapiens, NCI-H358, 4 h) [nM] | IC50 ([2]; Homo sapiens, CAPAN-1, 120 h) [nM] | IC50 ([4]; Homo sapiens, NCI-H358, 120 h) [nM]
CCO[C@@H]1c2nc(cs2)-c2ccc3c(c2)c(c(-c2cc(C4CCN(C5COC5)CC4)cnc2[C@H](C)OC)n3CC)CC(C)(C)COC(=O)[C@@H]2CCCN(N2)C(=O)[C@H]1NC(=O)[C@H]1[C@H](C)[C@@H]1C [Compound A449, (1r,2R,3S)—N-((6^3S,3S,4S,Z)-3-ethoxy-1^1-ethyl-1^2-(2-((S)-1-methoxyethyl)-5-(1-(oxetan-3-yl)piperidin-4-yl)pyridin-3-yl)-10,10-dimethyl-5,7-dioxo-6^1,6^2,6^3,6^4,6^5,6^6-hexahydro-1^1H-8-oxa-2 (4,2)-thiazola-1 (5,3)-indola-6 (1,3)-pyridazinacycloundecaphane-4-yl)-2,3-dimethylcyclopropane-1-carboxamide] | < 5000 | 100 to 1000 | 100 to 1000 | 100 to 1000 |  |  |  |  |  | 
CCn1c(-c2cccnc2[C@H](C)OC)c2c3cc(ccc31)-c1csc(n1)[C@@H](OCC1CCN(C)CC1)[C@H](NC(=O)[C@H]1C[C@@H]1C)C(=O)N1CCC[C@H](N1)C(=O)OCC(C)(C)C2 [Compound A451, (1S,2S)—N-((6^3S,3S,4S,Z)-1^1-ethyl-1^2-(2-((S)-1-methoxyethyl)pyridin-3-yl)-10,10-dimethyl-3-((1-methylpiperidin-4-yl)methoxy)-5,7-dioxo-6^1,6^2,6^3,6^4,6^5,6^6-hexahydro-1^1H-8-oxa-2 (4,2)-thiazola-1 (5,3)-indola-6 (1,3)-pyridazinacycloundecaphane-4-yl)-2-methylcyclopropane-1-carboxamide] | < 5000 | 10 to 100 | 100 to 1000 | 10 to 100 |  |  |  |  |  | 
CCn1c(-c2cccnc2[C@H](C)OC)c2c3cc(ccc31)-c1csc(n1)C[C@H](NC(=O)[C@H](C(C)C)N(C)C(=O)N1C[C@H]3CN(C)CC[C@H]31)C(=O)N1CCC[C@H](N1)C(=O)OCC(C)(C)C2 [Compound A462] |  |  | 100 to 1000 |  | < 5000 | 100 to 1000 | 100 to 1000 |  |  | 
CCOC1c2nc(cs2)-c2ccc3c(c2)c(c(-c2cc(C4CC5COCC(C4)N5C4CC4)cnc2C(C)OC)n3CC)CC(C)(C)COC(=O)C2CCCN(N2)C(=O)C1NC(=O)C1C(C)C1C [Compound A483, (1r,2R,3S)—N-((6^3S,3S,4S,Z)-12-(5-((1R,5S,7s)-9-cyclopropyl-3-oxa-9-azabicyclo[3.3.1]nonan-7-yl)-2-((S)-1-methoxyethyl)pyridin-3-yl)-3-ethoxy-1^1-ethyl-10,10-dimethyl-5,7-dioxo-6^1,6^2,6^3,6^4,6^5,6^6-hexahydro-1^1H-8-oxa-2 (4,2)-thiazola-1 (5,3)-indola-6 (1,3)-pyridazinacycloundecaphane-4-yl)-2,3-dimethylcyclopropane-1-carboxamide] | < 5000 | 10 to 100 | 100 to 1000 | < 10 |  |  |  |  |  | 
CCn1c(-c2cccnc2[C@H](C)OC)c2c3cc(ccc31)-c1csc(n1)C[C@H](NC(=O)[C@H](C(C)C)N(C)C(=O)N1CCC[C@H](N(C)C)CC1)C(=O)N1CCC[C@H](N1)C(=O)OCC(C)(C)C2 [Compound A493] |  |  | 10 to 100 |  | < 5000 | 100 to 1000 | 10 to 100 |  |  | 
CCn1c(-c2cccnc2[C@H](C)OC)c2c3cc(ccc31)-c1csc(n1)C[C@H](NC(=O)[C@H](C(C)C)N(C)C(=O)N(C)C1(C)COC1)C(=O)N1CCC[C@H](N1)C(=O)OCC(C)(C)C2 [Compound A527] |  |  | < 10 |  | < 5000 | 10 to 100 | 10 to 100 |  |  | 
CCn1c(-c2cccnc2[C@H](C)OC)c2c3cc(ccc31)-c1csc(n1)C[C@H](NC(=O)[C@H](C(C)C)N(C)C(=O)N1CC([C@H](C)COC)C1)C(=O)N1CCC[C@H](N1)C(=O)OCC(C)(C)C2 [Compound A533] |  |  | 10 to 100 |  | < 5000 | 10 to 100 | 10 to 100 |  |  | 
CCn1c(-c2cccnc2[C@H](C)OC)c2c3cc(ccc31)-c1csc(n1)C[C@H](NC(=O)[C@H](C(C)C)N(C)C(=O)N1CCN3C(=O)CN(C)C[C@H]3C1)C(=O)N1CCC[C@H](N1)C(=O)OCC(C)(C)C2 [Compound A537] |  |  | 10 to 100 |  | < 5000 | 10 to 100 | 10 to 100 |  |  | 
CCn1c(-c2cccnc2[C@H](C)OC)c2c3cc(ccc31)-c1csc(n1)C[C@H](NC(=O)[C@H](C(C)C)N(C)C(=O)N1CC([C@H](C)N(C)C)C1)C(=O)N1CCC[C@H](N1)C(=O)OCC(C)(C)C2 [Compound A538] |  |  | 10 to 100 |  | < 5000 | 10 to 100 | 10 to 100 |  |  | 
CCn1c(-c2cccnc2[C@H](C)OC)c2c3cc(ccc31)-c1csc(n1)C[C@H](NC(=O)[C@H](C(C)C)N(C)C(=O)N1CCCC13CN(C)C3)C(=O)N1CCC[C@H](N1)C(=O)OCC(C)(C)C2 [Compound A545] |  |  | 10 to 100 |  | < 5000 | 100 to 1000 | 100 to 1000 |  |  | 
CCn1c(-c2cccnc2[C@H](C)OC)c2c3cc(ccc31)-c1cc(O)cc(c1)C[C@H](NC(=O)[C@H](C(C)C)N(C)C(=O)[C@@H]1OCC[C@H]1c1ccccc1)C(=O)N1CCC[C@H](N1)C(=O)OCC(C)(C)C2 [Compound A584] |  |  | 10 to 100 |  | < 5000 | 100 to 1000 | 10 to 100 |  |  | 
CCn1c(-c2cccnc2[C@H](C)OC)c2c3cc(ccc31)-c1csc(n1)C[C@H](NC(=O)[C@H](C(C)C)N(C)C(=O)N1CCN(C(=O)[C@@H]3CCCN3C)CC1)C(=O)N1CCC[C@H](N1)C(=O)OCC(C)(C)C2 [Compound A596] |  |  | 10 to 100 |  | < 5000 | 100 to 1000 | 10 to 100 |  |  | 
CCn1c(-c2cccnc2[C@H](C)OC)c2c3cc(ccc31)-c1csc(n1)C[C@H](NC(=O)[C@H](C(C)C)N(C)C(=O)N1CC(O)(CN(C)C)C1)C(=O)N1CCC[C@H](N1)C(=O)OCC(C)(C)C2 [Compound A597] |  |  | 10 to 100 |  | < 5000 | 100 to 1000 | 10 to 100 |  |  | 
CCn1c(-c2cccnc2[C@H](C)OC)c2c3cc(ccc31)-c1csc(n1)[C@@H](OC)[C@H](NC(=O)[C@H](C(C)C)N(C)C(=O)N(C)C)C(=O)N1CCC[C@H](N1)C(=O)OCC(C)(C)C2 [Compound A598, (2S)—N-((6^3S,3S,4S,Z)-1^1-ethyl-3-methoxy-1^2-(2-((S)-1-methoxyethyl)pyridin-3-yl)-10,10-dimethyl-5,7-dioxo-6^1,6^2,6^3,6^4,6^5,6^6-hexahydro-1^1H-8-oxa-2 (4,2)-thiazola-1 (5,3)-indola-6 (1,3)-pyridazinacycloundecaphane-4-yl)-3-methyl-2-(1,3,3-trimethylureido) butanamide] |  |  | 10 to 100 |  |  |  |  | < 5000 | 100 to 1000 | 100 to 1000
CCn1c(-c2cccnc2[C@H](C)OC)c2c3cc(ccc31)-c1csc(n1)C[C@H](NC(=O)[C@H](C(C)C)N(C)C(=O)N1CC3(CCN(C)C3)C1)C(=O)N1CCC[C@H](N1)C(=O)OCC(C)(C)C2 [Compound A602] |  |  | 10 to 100 |  | < 5000 | 100 to 1000 | 100 to 1000 |  |  | 
